Test results published in ChEMBL document CHEMBL6121046, “Discovery of Novel Hydrazide-Based HDAC3 Inhibitors as Epigenetic Immunomodulators for Cancer Immunotherapy” (J Med Chem, 2025).
Activity calls are given as the source filed them. The calls are words filed in the database; no cut-off is given here.

What was measured:
MC-38 [1] = assay: In vivo antitumor activity against mouse MC38 cells allografted in C57BL/6 mouse assessed as decrease in […] positive cells in tumor in presence of NP19 PD-L1 inhibitor at 50 mg/kg, po treated 5 days after cell inoculation 19 th day by immunofluorescence analysis; assay type: functional, organism-based; settings: time 15.0 day
MC-38 [2] = assay: In vivo antitumor activity against mouse MC38 cells allografted in C57BL/6 mouse assessed as increase in Tunel-positive cells in tumor in presence of NP19 PD-L1 inhibitor at 50 mg/kg, po treated 5 days after cell inoculation 19 th day by immunofluorescence analysis; assay type: functional, organism-based; settings: time 15.0 day
[3] = Volume of distribution at steady state in Sprague-Dawley rat at 20 mg/kg, iv measured upto 12 hrs by LC-MS/MS analysis; assay type: ADME, organism-based; settings: in vivo, read-out: Vdss
[4] = Tmax in Sprague-Dawley rat at 20 mg/kg, iv measured upto 12 hrs by LC-MS/MS analysis; assay type: ADME, organism-based; settings: in vivo
Mus musculus [5] = assay: Immunomodulatory effect in C57BL/6 mouse allografted mouse MC38 cells assessed as increase in tumor infiltrating lymphocytes by measuring increase in […] in mouse blood at 50 mg/kg, po treated 5 days after cell inoculation 19 th day by flow cytometry analysis (reference value: 0.35%); assay type: functional; settings: time 15 day
MC-38 [6] = assay: Induction of mitochondrial membrane damage in mouse MC38 cells assessed as increase in JC-1 monomers by measuring green fluorescence at 8 uM measured after 48 hrs (reference value: 3.13%); assay type: functional
MC-38 [7] = assay: Induction of mitochondrial membrane damage in mouse MC38 cells assessed as decrease in JC-1 aggregation by measuring red fluorescence at 2 uM measured after 48 hrs (reference value: 96.70%); assay type: functional; design: scale not given: the % may be the effect or the level left
MC-38 [8] = assay: Induction of mitochondrial membrane damage in mouse MC38 cells assessed as increase in JC-1 monomers by measuring green fluorescence at 1 uM measured after 48 hrs (reference value: 3.13%); assay type: functional
[9] = Toxicity in C57BL/6 mouse allografted with mouse MC38 cells assessed as body weight loss in presence of NP19 PD-L1 inhibitor at 50 mg/kg, po treated 5 days after cell inoculation 19 th day; assay type: organism-based; settings: in vivo, 360 h, time 15 day
[10] = Toxicity in C57BL/6 mouse allografted with mouse MC38 cells assessed as creatinine (CRE) level in serum at 50 mg/kg, po treated 5 days after cell inoculation 19 th day; assay type: organism-based; settings: in vivo, 360 h, time 15 day
Mus musculus [11] = assay: Immunomodulatory effect in C57BL/6 mouse allografted mouse MC38 cells assessed as increase in tumor infiltrating lymphocytes by measuring increase in CD8+ T […] cells in tumor at 50 mg/kg, po treated 5 days after cell inoculation 19 th day by flow cytometry analysis (reference value: 2.32%); assay type: functional; settings: time 15 day
MC-38 [12] = assay: In vivo antitumor activity against mouse MC38 cells allografted in C57BL/6 mouse assessed as decrease in […] positive cells in tumor at 50 mg/kg, po treated 5 days after cell inoculation 19 th day by immunofluorescence analysis; assay type: functional, organism-based; settings: time 15.0 day
MC-38 [13] = assay: In vivo antitumor activity against mouse MC38 cells allografted in C57BL/6 mouse assessed as increase in Tunel-positive cells in tumor at 50 mg/kg, po treated 5 days after cell inoculation 19 th day by immunofluorescence analysis; assay type: functional, organism-based; settings: time 15.0 day
MC-38 [14] = assay: Induction of PD-L1 expression in mouse MC38 cells in presence of JQ-1 BRD4 inhibitor at 4 uM measured after 24 hrs incubation by Western blot analysis; assay type: functional, cell-based
MC-38 [15] = assay: Induction of PD-L1 expression in mouse MC38 cells measured after 24 hrs incubation by immunofluorescence staining analysis; assay type: functional, cell-based; settings: dose 1-4 µM
[16] = Toxicity in C57BL/6 mouse allografted with mouse MC38 cells assessed as aspartate aminotransferase (AST) level in serum at 50 mg/kg, po treated 5 days after cell inoculation 19 th day; assay type: organism-based; settings: in vivo, 360 h, time 15 day
Mus musculus [17] = assay: Induction of acetylated H3 level in tumor in C57BL/6 mouse allografted with mouse MC38 cells at 50 mg/kg, po treated 5 days after cell inoculation 19 th day by immunofluorescence analysis; assay type: functional, organism-based; settings: time 15.0 day
[18] = Toxicity in C57BL/6 mouse allografted with mouse MC38 cells assessed as alanine amino transferase (ALT) level in serum at 50 mg/kg, po treated 5 days after cell inoculation 19 th day; assay type: organism-based; settings: in vivo, 360 h, time 15 day
[19] = Acute toxicity in C57 mouse assessed as body weight change; settings: in vivo
Mus musculus [20] = assay: Induction of PD-L1 expression in tumor in C57BL/6 mouse allografted with mouse MC38 cells at 50 mg/kg, po treated 5 days after cell inoculation 19 th day by immunofluorescence analysis; assay type: functional, organism-based; settings: time 15.0 day
Mus musculus [21] = assay: Immunomodulatory effect in C57BL/6 mouse allografted mouse MC38 cells assessed as increase in tumor infiltrating lymphocytes by measuring increase in […] in mouse blood in presence of NP19 PD-L1 inhibitor at 50 mg/kg, po treated 5 days after cell inoculation 19 th day by flow cytometry analysis (reference value: 0.35%); assay type: functional; settings: time 15 day
[22] = Toxicity in C57BL/6 mouse allografted with mouse MC38 cells assessed as pathological changes in kidney at 50 mg/kg, po treated 5 days after cell inoculation 19 th day by hematoxylin and eosin analysis; assay type: organism-based; settings: in vivo, 360 h, time 15 day
[23] = Half life in Sprague-Dawley rat at 20 mg/kg, po measured upto 12 hrs by LC-MS/MS analysis; assay type: ADME, organism-based; settings: in vivo
MC-38 [24] = assay: Induction of mitochondrial membrane damage in mouse MC38 cells assessed as decrease in JC-1 aggregation by measuring red fluorescence at 8 uM measured after 48 hrs (reference value: 96.70%); assay type: functional; design: scale not given: the % may be the effect or the level left
Mus musculus [25] = assay: Immunomodulatory effect in C57BL/6 mouse allografted mouse MC38 cells assessed as increase in tumor infiltrating lymphocytes by measuring increase in […] in mouse spleen at 50 mg/kg, po treated 5 days after cell inoculation 19 th day by flow cytometry analysis (reference value: 13.6%); assay type: functional; settings: time 15 day
MC-38 [26] = assay: In vivo antitumor activity against mouse MC38 cells allografted in C57BL/6 mouse assessed as apoptosis in tumor at 50 mg/kg, po treated 5 days after cell inoculation 19 th day relative to control; assay type: functional, organism-based; settings: time 15.0 day
[27] = Tmax in Sprague-Dawley rat at 20 mg/kg, po measured upto 12 hrs by LC-MS/MS analysis; assay type: ADME, organism-based; settings: in vivo
[28] = MRT (0 to t) in Sprague-Dawley rat at 20 mg/kg, po measured upto 12 hrs by LC-MS/MS analysis; assay type: ADME, organism-based; settings: in vivo
[29] = Clearance in Sprague-Dawley rat at 20 mg/kg, po measured upto 12 hrs by LC-MS/MS analysis; assay type: ADME, organism-based; settings: in vivo
[30] = Toxicity in C57BL/6 mouse allografted with mouse MC38 cells assessed as pathological changes in spleen at 50 mg/kg, po treated 5 days after cell inoculation 19 th day by hematoxylin and eosin analysis; assay type: organism-based; settings: in vivo, 360 h, time 15 day
Mus musculus [31] = assay: Immunomodulatory effect in C57BL/6 mouse allografted mouse MC38 cells assessed as increase in tumor infiltrating lymphocytes by measuring increase in CD4+ T helper cells in mouse lymph nodes in presence of NP19 PD-L1 inhibitor at 50 mg/kg, po treated 5 days after cell inoculation 19 th day by flow cytometry analysis (reference value: 15.5%); assay type: functional; settings: time 15 day

Compound: CCCNNC(=O)c1ccc(CNC(=O)c2cnc(-c3ccc4occc4c3)[nH]2)cc1
- Activity (MC-38 [1]): Active
- Activity (MC-38 [2]): Active
- Vd [3]: 2.35 L/kg
- Tmax [4]: 4.8 min
- Activity (Mus musculus [5]): 0.56%
- Activity (MC-38 [6]): 28.37%
- Activity (MC-38 [7]): 91.43%
- Activity (MC-38 [8]): 6.34%
- Activity [9]: Non-toxic
- Activity [10]: Non-toxic
- Activity (Mus musculus [11]): 5.29%
- Activity (MC-38 [12]): Active
- Activity (MC-38 [13]): Active
- Activity (MC-38 [14]): Active
- Activity (MC-38 [15]): Dose-dependent-effect
- Activity [16]: Non-toxic
- Activity (Mus musculus [17]): Active
- Activity [18]: Non-toxic
- LD50 [19]: > 200 mg/kg
- Activity (Mus musculus [20]): Active
- Activity (Mus musculus [21]): 0.83%
- Activity [22]: Non-toxic
- half-life [23]: 3.13 h
- Activity (MC-38 [24]): 71.37%
- Activity (Mus musculus [25]): 14.1%
- Activity (MC-38 [26]): Active
- Tmax [27]: 0.88 h
- MRT last at 12 h [28]: 4.2 h
- CL/F [29]: 259 mL/min/kg
- Activity [30]: Non-toxic
- Activity (Mus musculus [31]): 20%
